# Data: the supplement of paper PMC10307832
# Experiments:
# Test in all cases: relative viability (nuclei count vs DMSO), 5 days (fraction); higher = more cells survive
# Ispinesib + Trametinib = compound: Cc1ccc(C(=O)N(CCCN)[C@@H](c2nc3cc(Cl)ccc3c(=O)n2Cc2ccccc2)C(C)C)cc1 [Ispinesib] + CC(=O)Nc1cccc(-n2c(=O)n(C3CC3)c(=O)c3c(Nc4ccc(I)cc4F)n(C)c(=O)c(C)c32)c1 [Trametinib] (partner 0.02 µM)
# Method in brief: (§1)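 Lung cancer cell lines were pin-tool dosed in 1536-well plates on the day after seeding, with either a lone drug or a fixed anchor-drug dose plus five library-drug doses (not always all listed) in √10 steps. Nuclei were counted on 4× images after 5 days. Relative viability is the ratio of treated-well to vehicle-well nuclei counts, with each value a median of duplicate plates.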
# Ispinesib + Alpelisib = compound: Cc1ccc(C(=O)N(CCCN)[C@@H](c2nc3cc(Cl)ccc3c(=O)n2Cc2ccccc2)C(C)C)cc1 [Ispinesib] + Cc1nc(NC(=O)N2CCC[C@H]2C(N)=O)sc1-c1ccnc(C(C)(C)C(F)(F)F)c1 [Alpelisib] (partner 2 µM)
# Method in brief: as §1
# Ispinesib + OSI-027 = compound: Cc1ccc(C(=O)N(CCCN)[C@@H](c2nc3cc(Cl)ccc3c(=O)n2Cc2ccccc2)C(C)C)cc1 [Ispinesib] + COc1cccc2cc(-c3nc([C@H]4CC[C@H](C(=O)O)CC4)n4ncnc(N)c34)[nH]c12 [OSI-027] (partner 0.5 µM)
# Method in brief: as §1
# Ispinesib + Pictilisib = compound: Cc1ccc(C(=O)N(CCCN)[C@@H](c2nc3cc(Cl)ccc3c(=O)n2Cc2ccccc2)C(C)C)cc1 [Ispinesib] + CS(=O)(=O)N1CCN(Cc2cc3nc(-c4cccc5[nH]ncc45)nc(N4CCOCC4)c3s2)CC1 [Pictilisib] (partner 1 µM)
# Method in brief: as §1
Cell Line,relative viability (Ispinesib + Trametinib; first compound 0.001 µM),relative viability (Ispinesib + Trametinib; first compound 0.003162 µM),relative viability (Ispinesib + Trametinib; first compound 0.01 µM),relative viability (Ispinesib + Trametinib; first compound 0.03162 µM),relative viability (Ispinesib + Trametinib; first compound 0.1 µM),relative viability (Ispinesib + Alpelisib; first compound 0.001 µM),relative viability (Ispinesib + Alpelisib; first compound 0.003162 µM),relative viability (Ispinesib + Alpelisib; first compound 0.01 µM),relative viability (Ispinesib + Alpelisib; first compound 0.03162 µM),relative viability (Ispinesib + Alpelisib; first compound 0.1 µM),relative viability (Ispinesib + OSI-027; first compound 0.001 µM),relative viability (Ispinesib + OSI-027; first compound 0.003162 µM),relative viability (Ispinesib + OSI-027; first compound 0.01 µM),relative viability (Ispinesib + OSI-027; first compound 0.03162 µM),relative viability (Ispinesib + OSI-027; first compound 0.1 µM),relative viability (Ispinesib + Pictilisib; first compound 0.001 µM),relative viability (Ispinesib + Pictilisib; first compound 0.003162 µM),relative viability (Ispinesib + Pictilisib; first compound 0.01 µM),relative viability (Ispinesib + Pictilisib; first compound 0.03162 µM),relative viability (Ispinesib + Pictilisib; first compound 0.1 µM)
201T,0.743,0.75,0.729,0.692,0.678,1.07,1.01,1.06,0.996,0.955,0.828,0.952,0.834,0.56,0.181,0.724,0.733,0.677,0.643,0.652
A549,–,–,–,–,–,0.655,0.761,1.08,0.0901,0.0827,–,–,–,–,–,0.674,0.525,0.831,0.173,0.158
A-427,0.721,0.811,0.745,0.463,0.226,1.1,1.21,0.993,1,1.04,0.508,0.449,0.571,0.155,0.181,0.805,0.829,0.891,0.388,0.177
ABC-1,–,–,–,–,–,1.36,0.881,1.25,0.343,0.315,0.488,0.524,0.58,0.203,0.283,0.656,0.678,0.692,0.301,0.339
BEN,1.07,1.17,1.15,0.916,0.677,1.06,1.13,1.12,0.758,0.353,0.312,0.306,0.341,0.38,0.202,0.581,0.675,0.542,0.421,0.222
CAL-12T,0.353,0.315,0.28,0.294,0.215,1.05,1.29,1.38,0.624,0.142,0.737,0.584,0.701,0.166,0.177,0.413,0.545,0.523,0.295,0.172
COR-L23,0.611,0.565,0.376,0.103,0.168,0.827,0.948,1.08,0.144,0.16,0.808,0.918,0.931,0.357,0.214,0.895,0.863,0.908,0.181,0.235
COR-L 105,0.466,0.424,0.426,0.363,0.377,1.15,0.952,0.89,0.562,0.35,0.769,0.603,0.585,0.266,0.305,0.448,0.393,0.257,0.243,0.258
Calu-6,–,–,–,–,–,1.04,0.901,0.551,0.134,0.145,–,–,–,–,–,1.09,0.727,0.186,0.113,0.155
ChaGo-K-1,0.903,0.999,1.06,0.992,0.895,–,–,–,–,–,0.529,0.627,0.582,0.627,0.222,0.895,1.3,0.659,0.397,0.312
EBC-1,–,–,–,–,–,0.77,0.861,0.931,0.244,0.274,–,–,–,–,–,0.448,0.38,0.328,0.179,0.191
EKVX,0.321,–,0.361,0.603,0.218,0.978,0.879,0.923,0.944,0.273,0.731,0.75,0.777,0.75,0.634,0.442,0.423,0.508,0.543,0.438
EMC-BAC-2,0.846,0.966,0.965,0.624,0.312,0.815,0.752,0.917,0.548,0.526,0.388,0.402,0.356,0.25,0.309,0.553,0.568,0.539,0.413,0.239
EPLC-272H,0.302,0.277,0.306,0.225,0.206,0.989,1.12,1.01,0.529,0.972,0.242,0.281,0.238,0.167,0.152,0.295,0.337,0.338,0.258,0.142
H3255,0.621,0.711,0.622,0.448,0.328,0.677,0.8,0.736,0.492,0.33,0.577,0.574,0.588,0.552,0.414,0.456,0.431,0.471,0.335,0.345
